# Measurements reported in patent US8114382B2, “Myelin detection using benzofuran derivatives” (General Electric Company, priority 2006, dated 2012).
# Columns and labels:
# [1] = Fluorescence excitation and emission peaks (Spetramax M5); assay type: physicochemical; conditions: 10 μM in aqueous solution
# Experimental: Fluorescence excitation and emission peaks for Formula I, and benzofuran compounds A and B, (see Table 1) were measured using a Spetramax M5 (Molecular Devices). For Formula I, the excitation max was 380 nm, and the emission max was 470 nm. For compound A, the excitation max was 435 nm and the emission max was 550 nm. For compound B, the excitation max was 435 nm and the emission max was 535 nm. The final concentration of each analog in an aqueous solution was 10 μM. Log P, which is the logarithm of octanol-water partition coefficient, was determined for each analog using commercially available software (Table 1).
# myelin = assay: Staining of cryostatic sections of nervous tissue; assay type: binding, rat; conditions: for labeling of brain or nerve tissue versus background autofluorescence: brain and nerve sections
# Experimental: 10 μm-thick sections (fresh frozen or formalin-fixed) of rat brain and cross-sections of sciatic, optic, and penile nerves were mounted on microscope slides, washed 3×5 min in phosphate buffered saline (PBS), then drained for 2 min. 1 mM stock solution of Formula I was prepared in 50% ethanol and 50% deionized water. The solution was vortexed and centrifuged at 10,000×g, and the supernatant, containing fully dissolved Formula I was transferred into a fresh tube. The solution was diluted to 25 uM in 50% ethanol. 200 uL of the 25 uM Formula I was pipetted onto the microscope slides. Control sections were treated with 50% ethanol. Parafilm was placed over sections during 10 min incubation at room temperature. Unbound compound was rinsed by serial immersion in 3×1 min washes in 50% ethanol, followed by a 1 min wash in de-ionized, distilled water. For cell body counterstaining, sections were immersed in 100 uL of 500 nM propidium iodide (PI) in PBS and carefully covered with parafilm. The sections were incubated for 5 min at room temperature. The samples were repeatedly rinsed and washed with PBS (3×10 min), followed by de-ionized, distilled water. The sections were covered with 20 uL of AntiFade Gold (Molecular Probes Inc, Carlsbad Calif.) and examined microscopically. Images were collected on a Leica DMRA2 fluorescent microscope equipped with filter cubes for near ultraviolet and visible fluorophores. Fluorescence was visualized using a Leica “A” filter cube while PI was imaged with a Leica “TX2” cube.
# Staining of sciatic nerve sections by Formula I was also compared to a commercially available myelin stain (FluoroMyelin, Invitrogen). The tissue sections were […] by incubating in PBS for 5 minutes, followed by permeabilized with PBS containing 0.2% Triton X-100 for 20 minutes. The staining solution was prepared by 300-fold dilution of a stock solution of DAPI and a stock solution of Fluoromyelin green fluorescent myelin. Each section was flooded with 100 uL of the staining solution, covered with a small piece of parafilm and allowed to incubate for 20 min. The parafilm was removed and all sections were washed 3×5 min in PBS and rinsed with de-ionized, distilled water. After drying, the tissue sections were covered with 20 uL of AntiFade Gold (Molecular Probes Inc) and examined microscopically.
# [2] = test system: myelin of freshly explanted sciatic nerve; assay: Staining of explanted nerves; assay type: binding, rat; conditions: 20 min incubation, trans-illuminator ≧350 nm
# Experimental: Freshly explanted sciatic nerve was incubated in Formula I then imaged under an ultraviolet transilluminator to visualize myelin. Rats were euthanized and within 30 min, 2 cm-long segments of their sciatic nerve tissue were collected, rinsed with PBS, then washed 3×5 min in 50% ethanol. The nerves were incubated at RT in the dark for 20 min in a solution of Formula I as prepared in Example 1. Control nerves were incubated in 50% ethanol. Nerves were rinsed 3×3 min in 50% ethanol, followed by de-ionized distilled water, and mounted on glass slides. Samples were placed on a trans-illuminator (long wavelength, ≧350 nm) and photographed.
# [3] = Kinetics and biodistribution of [3H] labeled Formula I (standard uptake values); assay type: in vivo; conditions: mice
# Experimental: 100 μl of [^3H] labeled Formula I, diluted in saline to 740 kBq/ml, was injected into the tail vein of female mice weighing […]. Mice were killed by CO2 at 2, 5, 15, 30, or 60 min post-injection and organs immediately dissected out. Organs were weighed, transferred to scintillation tubes containing 2 ml Biolute-S (Zinsser Analytic GmbH, Germany), and tubes were shaken overnight at room temperature. Subsequently, 200 μL of glacial acetic acid was added and after 1 h, 10 mL of scintillation fluid was added (Ready Organics, Beckman Coulter). The tubes were shaken vigorously, allowed to rest for 1 h, and radioactivity was measured in scintillation counter (LS 6000LL, Beckman Instruments). Blood, also sampled at each time point, was collected in heparinized tubes. 10 μL of each sample was added to 2 ml Biolute-S. A similar procedure was used for the other organs studied.
# Biodistribution of Formula I at different time points following administration was expressed as standard uptake values (SUVs), according to the following formula wherein RA is a measure of radioactivity: […]
SMILES,Emission max [1] [nm],Excitation max [1] [nm],labeling of brain or nerve tissue versus background autofluorescence (myelin),"labeling of rat brain tissue section (myelin; 25 uM in 50% ethanol, 10 min, cerebellum, PI counterstain, FIG. 1)",labeling of sectioned peripheral nerves (myelin; cross-sections of peripheral nerves),fluorescence of explanted sciatic nerve [2],"blood-brain barrier penetration ([3]; peripheral administration, uptake in cortex and cerebellum)","SUV / radioactive signal of sciatic nerve over time ([3]; tail vein injection, 2-60 min)","SUV of cortex and cerebellum ([3]; tail vein injection, 2 min post-injection)","time for SUV of multiple tissues to decline to baseline levels ([3]; tail vein injection, tissues such as blood and muscle) [min]"
"CC(=O)OCc1c(-c2ccc(C=C(C#N)C#N)o2)oc2ccccc12 [compound B, 2-(2-diaminooxyethenyl-5-furanyl)-3-ethylacetyl benzofuran]",535,435,did not label brain or nerve tissue above background autofluorescence,–,–,–,–,–,–,–
N#CC(C#N)=Cc1ccc(-c2oc3ccccc3c2CO)o1 [compound A],550,435,did not label brain or nerve tissue above background autofluorescence,–,–,–,–,–,–,–
"O=Cc1ccc(-c2oc3ccccc3c2CO)o1 [Formula I, 2-(2-furanyl-5-formyl)-3-hydroxymethyl benzofuran]",470,380,–,specific labeling of myelin,distinctive rings of labeling indicative of cross sections of myelin ensheathing unlabeled axon shafts,distinctive fluorescence over background,does not readily penetrate the blood-brain barrier,remained elevated throughout the sampling period,< 0.2,≤ 60
